From patent US20080262049A1, “Therapeutic Agent for Hematopoietic Tumor” (KYOWA HAKKO KOGYO CO., LTD., priority 2005, published 2008)

How the values were obtained:
[1] = tested on: human acute myeloid leukemia MV-4-11 cells; assay: Cell growth inhibition test on acute myeloid leukemia cells (XTT), MV-4-11; format: cell-based; settings: MV4-11, same manner as Test Example 1, read-out: growth inhibitory activity, GI50 value
Experimental: (§1) RS4;11 cells (20000 cells/well), K-562 cells (1000 cells/well), or NCI-H929 cells (15000 cells/well) were seeded in each well of 96-well plates (Nunc, catalog No. 167008), and cultured overnight. Test compounds diluted stepwise were added, and the cells were further cultured for 72 hours (final volume: 100 μL/well). Fifty μL XTT labeling mixture of Cell Proliferation Kit II (XTT) (Roche Diagnostics, catalog No. 1465015) was added to each well, and the plates were incubated at 37° C. After 4 hours, absorbance at 490 nm (reference wavelength: 655 nm) was measured with a plate reader (Molecular Device, SpectraMax 340PC^384). Growth ratios of the cells in the wells treated with the test compound was calculated based on the growth ratio of the cells in the control well treated with solvent (dimethyl sulfoxide (DMSO)) for 72 hours, which was defined as 100%.
(§2) As cancer cell lines, human acute myeloid leukemia MV-4-11 cells (ATCC No. CRL-9591) and human non-Hodgkin's lymphoma SR cells (ATCC No. CRL-2262) were used. The cells were cultured at 37° C. in a 5% carbon dioxide atmosphere by using the mediums mentioned below, respectively.
(§3) In the same manner as that of Test Example 1, the cells were seeded (8000 to 16000 cells/well, respectively) in each well of 96-well plates (Nunc, catalog No. 167008), and growth ratios of the cells treated with test compounds were calculated. Measurement of absorbance was performed at 3 to 4 hours after the addition of the XTT labeling mixture.

[2] = tested on: human acute lymphoblastic leukemia RS4;11 cells; assay: Cell growth inhibition test against hematopoietic tumor cell lines (XTT), RS4;11; format: cell-based; settings: 72 hours culture with compound, read-out: growth inhibitory activity, GI50 value
Description: (§4) As hematopoietic tumor cell lines, human acute lymphoblastic leukemia RS4;11 cells (ATCC No. CRL-1873), human chronic myeloid leukemia K-562 cells (ATCC No. CCL-243), and human multiple myeloma NCI-H929 cells (ATCC No. CRL-9068) were used. For the culture of the cells, RPMI 1640 Medium (Invitrogen, catalog No. 11875-093) containing 10% fetal bovine serum (Invitrogen, catalog No. 10099-141), 10 mmol/L 4-(2-hydroxyethyl)-1-piperazinethanesulfonic acid (HEPES) buffer (ICN Biomedicals, catalog No. 1688449), 1 mmol/L sodium pyruvate (Invitrogen, catalog No. 11360-070), 4.5 g/L glucose (Sigma-Aldrich, catalog No. G8769), 100 units/mL penicillin (Invitrogen, catalog No. 15140-122) and 100 μg/mL streptomycin (Invitrogen, catalog No. 15140-122) was used. The cells were cultured at 37° C. in a 5% carbon dioxide atmosphere.
as §1

[3] = tested on: human multiple myeloma NCI-H929 cells; assay: Cell growth inhibition test against hematopoietic tumor cell lines (XTT), NCI-H929; format: cell-based; settings: 72 hours culture with compound, read-out: growth inhibitory activity, GI50 value
Description: as §4, §1

[4] = tested on: human chronic myeloid leukemia K-562 cells; assay: Cell growth inhibition test against hematopoietic tumor cell lines (XTT), K-562; format: cell-based; settings: K562, 72 hours culture with compound, read-out: growth inhibitory activity, GI50 value
Description: as §4, §1

[5] = tested on: human non-Hodgkin's lymphoma SR cells; assay: Cell growth inhibition test on non-Hodgkin's lymphoma cells (XTT), SR; format: cell-based; settings: same manner as Test Example 1, read-out: growth inhibitory activity, GI50 value
Experimental: as §1, §2, §3

[6] = molecular target: T1, recombinant human Eg5 motor domain protein (Homo sapiens, UniProt P52732); assay: Eg5 enzyme inhibition test (ATPase activity); format: biochemical; settings: for inhibition of the ATPase activity of Eg5 (in words): 30° C., 30 minutes, absorbance at 360 nm; for Eg5 inhibitory activity compared with the corresponding racemic mixture (in words): versus Compounds 3, 4, 6, 7, 20, 14, 9, 8, the respectively corresponding racemic mixtures
T1 construct: A plasmid expressing the motor domain of human Eg5 was constructed; made in house; host or cells: Escherichia coli BL21 (DE3)
T1 sequence (P52732 18-359 limits assumed): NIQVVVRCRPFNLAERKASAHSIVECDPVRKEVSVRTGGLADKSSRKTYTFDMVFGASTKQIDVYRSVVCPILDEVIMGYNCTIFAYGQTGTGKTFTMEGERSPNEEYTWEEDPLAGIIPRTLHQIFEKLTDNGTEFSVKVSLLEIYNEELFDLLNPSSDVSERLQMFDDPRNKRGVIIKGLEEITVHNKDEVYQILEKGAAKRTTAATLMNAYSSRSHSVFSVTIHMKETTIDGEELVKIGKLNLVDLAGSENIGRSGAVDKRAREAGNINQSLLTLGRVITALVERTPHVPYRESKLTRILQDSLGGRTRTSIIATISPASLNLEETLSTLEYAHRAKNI
Experimental: A recombinant human Eg5 motor domain protein was prepared by referring to the literature [Biochemistry, Vol. 35, p. […] A plasmid expressing the motor domain of human Eg5 was constructed, and transformed into Eseherichia coli BL21 (DE3). The transformant was cultured at 25° C., and when the OD600 reached 0.74, isopropyl-β-D-thiogalactoside was added at a final concentration of 0.5 mmol/L. The transformant was further cultured for 4 hours, and then the culture medium was centrifuged to collect the cells. The cells were suspended in a buffer and ultrasonicated, and then the sonicated solution was centrifuged to recover the supernatant. The supernatant was purified by cation exchange column chromatography to obtain a partially purified sample. Furthermore, the partially purified sample was purified by gel filtration column chromatography to obtain a finally purified sample.
Measurement of the ATPase activity of Eg5 was carried out by referring to the literatures [EMBO Journal, Vol. 13, p. […] Solution A was dispensed into each well of a 96-well plate as 45 μL portions. Solution B was used to serially dilute a test compound. The diluted test compound solutions in a volume of 30 μL were mixed with Solution A added beforehand in each well of the 96-well plate to start the enzymatic reaction. The enzymatic reaction was performed at 30° C. for 30 minutes. […] The relative activity was calculated to calculate IC50 value.

| GI50 [1] [µM] | melting point [°C] | GI50 [2] [µM] | GI50 [3] [µM] | GI50 [4] [µM] | GI50 [5] [µM] | Eg5 inhibitory activity compared with the corresponding racemic mixture (in words) [6] | Structure (SMILES) | inhibition of the ATPase activity of Eg5 (in words) [6] |
| --- | --- | --- | --- | --- | --- | --- | --- | --- |
| < 10 | 188 to 191 | < 10 | < 10 | < 10 | < 10 | stronger inhibitory activities | CCC(=O)N1N=C(N2CCCC2=O)SC1(CCNS(C)(=O)=O)c1ccccc1 (single isomer, unassigned; (-)) [Compound e, (−)-N-{2-[5-(2-Oxopyrrolidin-1-yl)-2-phenyl-3-propionyl-2,3-dihydro-1,3,4-thiadiazol-2-yl]ethyl}methanesulfonamide] | inhibited the ATPase activity of Eg5 in a concentration-dependent manner |
| < 10 | 169 to 171 | < 10 | < 10 | < 10 | < 10 | stronger inhibitory activities | CC(=O)N1N=C(N2CCCCC2=O)SC1(CCNS(C)(=O)=O)c1ccccc1 (single isomer, unassigned; (-)) [Compound h, (−)-N-{2-[3-Acetyl-5-(2-oxopiperidino)-2-phenyl-2,3-dihydro-1,3,4-thiadiazol-2-yl]ethyl}methanesulfonamide] | inhibited the ATPase activity of Eg5 in a concentration-dependent manner |
|  | 137 to 140 |  |  |  |  |  | CC(=O)N1N=C(N2CCCC2=O)SC1(CCNS(C)(=O)=O)c1ccccc1 (centres unmarked) [Compound g, N-{2-[3-Acetyl-5-(2-oxopyrrolidin-1-yl)-2-phenyl-2,3-dihydro-1,3,4-thiadiazol-2-yl]ethyl}methanesulfonamide] |  |

Further lines, the compound ahead of its results:

| Structure (SMILES) | GI50 [1] [µM] | melting point [°C] | GI50 [2] [µM] | GI50 [3] [µM] | GI50 [4] [µM] | GI50 [5] [µM] | Eg5 inhibitory activity compared with the corresponding racemic mixture (in words) [6] | inhibition of the ATPase activity of Eg5 (in words) [6] |
| --- | --- | --- | --- | --- | --- | --- | --- | --- |
| CN(C)CCS(=O)(=O)NCC1(c2ccccc2)SC(NC(=O)C(C)(C)C)=NN1C(=O)C(C)(C)C (single isomer, unassigned; (-)) [Compound m, (−)-N-[5-(2-Dimethylaminoethanesulfonylaminomethyl)-4-(2,2-dimethylpropionyl)-5-phenyl-4,5-dihydro-1,3,4-thiadiazol-2-yl]-2,2-dimethylpropanamide] | < 10 | 101 to 104 | < 10 | < 10 | < 10 | < 10 |  |  |
| CN(C)CCCS(=O)(=O)NCC1(c2ccccc2)SC(NC(=O)C(C)(C)C)=NN1C(=O)C(C)(C)C (single isomer, unassigned; (-)) [Compound n, (−)-N-[5-(3-Dimethylaminopropanesulfonylaminomethyl)-4-(2,2-dimethylpropionyl)-5-phenyl-4,5-dihydro-1,3,4-thiadiazol-2-yl]-2,2-dimethylpropanamide] | < 10 | 92 to 95 | < 10 | < 10 | < 10 | < 10 |  |  |
